Legend:
[1] = target: T1, human serotonin re-uptake transporter (hSERT) (Homo sapiens, UniProt P31645); experiment: Serotonin uptake inhibition in HEK-293 cells expressing hSERT; type: cell-based; conditions: transfected HEK-293 cells; 20 nM (3H) serotonin, 30 minutes; average +/− s.e.m.; read-out: IC50 for tritiated serotonin uptake
T1 construct: host or cells: HEK-293
Protocol: HEK-293 cells stably expressing the human serotonin re-uptake transporter (hSERT) were obtained from R. Blakely, Vanderbilt University, USA. The cells were routinely grown in Dulbeco's Modified Eagles Medium, purchased from Bioconcept, Allschwil, Switzerland containing 10% fetal calf serum, penicillin, streptomycin, L-glutamine and the antibiotic G418 and passaged by trypsinisation. One day prior to the assay cells were seeded in the above mentioned medium. Immediately prior to the assay the medium was replaced by Krebs Ringers bicarbonate buffer, purchased from Sigma Chemicals Ltd., supplemented with 35 μM pargyline, 2.2 mM CaCl2, 1 mM ascorbic acid and 5 mM N-2-hydroxyethylpiperazine-N′-2-ethanesulfonic acid (buffer called “Hepes”). Serotonin uptake into the cells was determined by addition of radio-labeled (3H) serotonin (Amersham Biosciences GE Healthcare, Slough, UK) to a concentration of 20 nM, and incubation for 30 minutes at room temperature. Following removal of unincorporated label by gentle washing three times with the above buffer, incorporated serotonin was quantified by liquid scintillation counting.
The effect of the compounds of formula I on the serotonin uptake was determined by its inclusion in the assay at a range of concentrations between 0.03 and 100 μM for 10 minutes prior to and during the addition of (3H) serotonin/citalopram. Serotonin uptake via the transporter was inhibited by ligustilide, 3-butylphthalide, senkyunolide A, senkyunolide C, senkyunolide B, and cnidilide, respectively, in a dose dependent manner, with IC50 values as shown in Table 2.

mice = experiment: Elevated plus maze test; type: in vivo, mouse; conditions: for OPEN ARM Number of entries, Mean ± sem / OPEN ARM Time spent (s), Mean ± sem: 5 h and 1 h before test; for OPEN ARM Number of entries, % change / OPEN ARM Time spent, % change: versus vehicle
Description: The method, which detects anxiolytic activity, follows that described by Handley et al, 1984 (Naunyn-Schm Arch Pharm 387: 1-5. Rodents avoid open spaces (the open arms of an elevated plus-maze). Anxiolytics increase exploratory activity in the […].
The maze consists of 4 arms of equal length and width (14×5 cm) arranged in the form of a plus sign (+). Two opposite arms are enclosed by 12 cm high walls (closed arms). The 2 other arms have no walls (open arms). The maze is raised 56 cm above the floor. A mouse is placed in the centre of the plus-maze and left to explore for 5 minutes. The number of entries into the open and closed arms and the time spent in the open arms is recorded. 10 mice were studied per group. The test was performed blind.
3-n-Butylphthalide was tested at doses of 10, 30, and 80 mg/kg body weight.

[2] = target: T2, human dopamine transporter (hDAT) (Homo sapiens, UniProt Q01959); experiment: Dopamine uptake inhibition in CHO-Ki/hDAT cells; type: cell-based; conditions: 50 nM [3H]Dopamine, 10 minutes
T2 construct: expressed in transfected cells; host or cells: CHO-Ki (CHO-K1)
T2 sequence (Q01959 whole entry): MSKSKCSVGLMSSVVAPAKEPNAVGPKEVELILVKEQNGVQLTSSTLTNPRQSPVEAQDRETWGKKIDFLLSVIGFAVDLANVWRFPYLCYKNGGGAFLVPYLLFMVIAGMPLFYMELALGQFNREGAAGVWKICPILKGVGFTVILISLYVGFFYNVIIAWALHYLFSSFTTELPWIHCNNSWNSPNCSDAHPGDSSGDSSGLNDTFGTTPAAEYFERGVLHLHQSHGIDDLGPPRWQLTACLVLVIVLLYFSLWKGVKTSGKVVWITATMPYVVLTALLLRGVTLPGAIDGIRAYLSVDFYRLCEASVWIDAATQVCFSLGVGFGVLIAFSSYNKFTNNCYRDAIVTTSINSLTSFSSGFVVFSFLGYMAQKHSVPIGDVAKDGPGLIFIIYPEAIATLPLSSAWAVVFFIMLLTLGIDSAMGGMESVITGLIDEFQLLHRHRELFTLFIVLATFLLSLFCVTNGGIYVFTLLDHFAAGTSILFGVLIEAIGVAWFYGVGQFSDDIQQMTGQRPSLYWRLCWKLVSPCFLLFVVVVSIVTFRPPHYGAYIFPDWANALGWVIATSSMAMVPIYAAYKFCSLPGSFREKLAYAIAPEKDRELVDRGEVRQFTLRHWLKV
Protocol: CHO-Ki/hDAT cells expressing the human dopamine transporter (hDAT) were plated before the assay. Cells (2×10^5/ml) were incubated with the compound of the formula I (3-n-butylphthalide) and/or vehicle in modified Tris-HEPES buffer pH 7.1 at 25° C. for 20 minutes before addition of 50 nM [^3H]Dopamine for 10 minutes. Specific signal was determined in the presence of 10 μM nomifensine. Cells were then solubilized with 1% […] lysis buffer. Reduction of [^3H]Dopamine uptake by 50 percent or more 50%) relative to vehicle controls indicates significant inhibitory activity. Compounds were screened at 10, 1, 0.1, 0.01 and 0.001 μM.

[3] = target: T3, Monoamine oxidase A (MAO-A) (Homo sapiens, UniProt P21397); experiment: Monoaminooxidase A inhibition (H2O2/vanillic acid/HRP readout); type: biochemical
T3 sequence (P21397 1-527): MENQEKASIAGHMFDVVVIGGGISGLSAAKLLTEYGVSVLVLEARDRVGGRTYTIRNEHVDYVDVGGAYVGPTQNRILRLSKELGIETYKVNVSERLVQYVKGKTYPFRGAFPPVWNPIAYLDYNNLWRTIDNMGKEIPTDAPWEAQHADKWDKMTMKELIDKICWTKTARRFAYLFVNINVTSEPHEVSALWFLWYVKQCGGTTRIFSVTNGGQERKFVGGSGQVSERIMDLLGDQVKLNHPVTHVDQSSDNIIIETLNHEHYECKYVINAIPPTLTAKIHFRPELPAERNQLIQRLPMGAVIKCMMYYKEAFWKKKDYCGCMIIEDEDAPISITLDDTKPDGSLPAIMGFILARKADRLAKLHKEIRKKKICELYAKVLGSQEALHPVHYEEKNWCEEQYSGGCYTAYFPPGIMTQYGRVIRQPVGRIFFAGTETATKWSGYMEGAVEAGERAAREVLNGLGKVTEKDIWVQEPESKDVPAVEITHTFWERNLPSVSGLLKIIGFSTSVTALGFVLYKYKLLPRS
Protocol: The organic amines p-tyramine or benzylamine were used as substrates for the Monoamine oxidase A (MAO-A) and B (MAO-B) enzymes respectively. The H2O2 produced by this reaction was quantified by reaction with vanillic acid, catalysed by horse radish peroxidase (HRP).
The reactions were carried out in polystyrene microtitre plates. The MAO enzymes (final concentration 2 U/ml) were mixed with either p-tyramine (Sigma, final concentration 0.5 mM) or benzylamine (Sigma, final concentration 0.5 mM) as appropriate and the chromogenic solution (containing vanillic acid (Fluka), 4-aminoantipyrine (Fluka) and horse radish peroxidase (Sigma), final concentrations 0.25 mM, 0.125 mM and 1 U/ml respectively) in 0.2 M potassium phosphate buffer pH 7.6. The reactions were followed in a microtitre plate absorbance reader eg Spectramax M5 (Molecular Devices Corporation). Absorbance readings at 495 nm were taken every 15 seconds for 40 minutes and the initial reaction velocities calculated by linear regression using SOFTmaxPro (Molecular Devices Corporation).
The effect of ligustilide, 3-butylphthalide, senkyunolide C and cnidilide on the monoamine oxidase enzymes was determined by their inclusion in the assay at a range of concentrations between 0.03 and 100 μM for 10 minutes prior to and during the incubation with substrate. To determine the effect of the compounds on the HRP catalyzed portion of the reaction, the MAO enzyme was replaced by H2O2 (Molecular Probes, final concentration 0.2 mM). The reactions containing MAO-A and MAO-B were both inhibited by […] according to formula I in a dose dependent manner, whilst the control reaction, was unaffected. The measured IC50 values for inhibition of monoamine oxidase activity by ligustilide, 3-butylphthalide, senkyunolide C and enidilide, respectively, are shown in Table 3.

T1 sequence (P31645 whole entry): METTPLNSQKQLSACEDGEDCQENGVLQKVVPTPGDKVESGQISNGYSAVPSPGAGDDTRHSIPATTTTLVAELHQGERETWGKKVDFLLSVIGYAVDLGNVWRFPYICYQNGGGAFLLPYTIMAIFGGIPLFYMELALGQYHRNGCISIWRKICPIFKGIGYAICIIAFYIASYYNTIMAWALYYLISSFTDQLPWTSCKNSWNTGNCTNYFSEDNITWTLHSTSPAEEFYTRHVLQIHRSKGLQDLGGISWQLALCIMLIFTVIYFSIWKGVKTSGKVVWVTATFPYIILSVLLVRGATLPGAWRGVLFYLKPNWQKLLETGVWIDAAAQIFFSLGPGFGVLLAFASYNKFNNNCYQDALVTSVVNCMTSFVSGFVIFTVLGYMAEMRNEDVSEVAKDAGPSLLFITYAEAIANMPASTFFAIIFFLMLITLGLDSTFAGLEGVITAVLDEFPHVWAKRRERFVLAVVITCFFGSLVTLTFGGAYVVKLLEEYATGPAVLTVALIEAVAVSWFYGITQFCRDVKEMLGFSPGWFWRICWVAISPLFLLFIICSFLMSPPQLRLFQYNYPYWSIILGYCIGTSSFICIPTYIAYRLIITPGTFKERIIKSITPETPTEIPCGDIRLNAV

Compound	IC50 [1]	OPEN ARM Number of entries, Mean ± sem (mice; 10 mg/kg p.o. −24 h)	OPEN ARM Time spent (s), Mean ± sem (mice; 10 mg/kg p.o. −24 h)	OPEN ARM Number of entries, % change (mice; 10 mg/kg p.o.)	OPEN ARM Time spent, % change (mice; 10 mg/kg p.o.)	OPEN ARM Number of entries, Mean ± sem (mice; 30 mg/kg p.o. −24 h)	OPEN ARM Time spent (s), Mean ± sem (mice; 30 mg/kg p.o. −24 h)	OPEN ARM Number of entries, % change (mice; 30 mg/kg p.o.)	OPEN ARM Time spent, % change (mice; 30 mg/kg p.o.)	OPEN ARM Number of entries, Mean ± sem (mice; 80 mg/kg p.o. −24 h)	OPEN ARM Time spent (s), Mean ± sem (mice; 80 mg/kg p.o. −24 h)	OPEN ARM Number of entries, % change (mice; 80 mg/kg p.o.)	OPEN ARM Time spent, % change (mice; 80 mg/kg p.o.)	anxiolytic activity (mice; 10, 30 and 80 mg/kg)	entries into the closed arm (mice; 10, 30 and 80 mg/kg)	number of entries and time spent in the open arm (overall) (mice; 10, 30 and 80 mg/kg)	IC50 [2]	IC50 [3]
CCCC[C@@H]1OC(=O)c2ccccc21 (stereo in doubt) [3-n-butylphthalide, 3-n-Butylphthalide]	35.2 µM	3.5 ± 0.7	24.3 ± 4.6 s	+46%	+34%	3.1 ± 0.5	23.0 ± 3.8 s	+29%	+26%	3.0 ± 0.8	26.4 ± 5.3 s	+25%	+45%	moderate anxiolytic activity	no effect	trend to moderately increase	22 µM	8.1 µM
CCC/C=C1\OC(=O)C2=C1CCC=C2 [Ligustilide]	20.4 µM	–	–	–	–	–	–	–	–	–	–	–	–	–	–	–	–	15.7 µM

Reference: patent US20100184852A1, “ORGANIC COMPOUNDS FOR TREATMENT OF DISORDERS CONNECTED TO IMPAIRED NEUROTRANSMISSION” (priority 2006, published 2010)
